Results as given in patent US20070093460A1, “Methods of using selective 11beta-HSD inhibitors to treat gluocorticoid associated states” (priority 2005, published 2007).
pIC50: −log10 of the molar value. “Also recorded” adds a separate entry of the source. Read-outs that look alike come from different tables or passages of the source.

Tests used:
[1] = target: T1, 11β-HSD1 Dehydrogenase (Rattus norvegicus, UniProt P16232); experiment: 11β-HSD1 dehydrogenase assay in rat Leydig cell homogenates; format: biochemical; design: Freshly prepared rat Leydig cell homogenates were chosen since they provide a rich and reliable source of both 11β-HSD1 dehydrogenase and reductase; from tissue; host or cells: rat testicular Leydig cells, homogenate; conditions: for Leydig Cell 11β-HSDl Dehydrogenase [S] = 600 nM: progesterone and androgen derivatives; for inhibitors of 11β-HSD1 dehydrogenase (summary in words): summary of the screening;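 for all read-outs here: tritiated corticosterone conversion by 11β-HSD1 dehydrogenase in Leydig homogenates with 3 mM NADP at pH 8.4, 37 °C for 10 min, products resolved by HPLC, inhibition relative to uninhibited enzyme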
T1 sequence (P16232 whole entry): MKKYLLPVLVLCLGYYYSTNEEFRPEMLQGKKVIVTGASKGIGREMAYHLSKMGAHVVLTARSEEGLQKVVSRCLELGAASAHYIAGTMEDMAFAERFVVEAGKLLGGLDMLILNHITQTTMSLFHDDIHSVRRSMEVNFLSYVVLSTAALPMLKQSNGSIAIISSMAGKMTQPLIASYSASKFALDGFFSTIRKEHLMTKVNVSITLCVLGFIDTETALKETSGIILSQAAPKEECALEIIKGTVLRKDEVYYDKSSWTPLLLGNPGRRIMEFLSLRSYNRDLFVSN
Experimental: (§1) Each enzyme reaction (described below) was stopped by adding 750 μL MeOH. After centrifugation, an aliquot of supernatant was analyzed by HPLC using a DuPont Zorbax C8 column.
(§2) 11β-HSD1 dehydrogenase was assayed by incubating homogenates (13,000 cells equivalent) with 600 nM [^3H]-B (0.5 μCi) in the presence of 3 mM NADP, 50 mM Tris-HCl; pH 8.4 at 37° C. for 10 minutes in a total volume of 250 μL. 11β-HSD1 reductase was assayed by incubating homogenates (52,000 cells equivalent) with 600 nM [^3H]-11-dehydro-corticosterone in presence of 3 mM NADPH, 50 mM Tris-HCl; pH 7.4 at 37° C. for 20 minutes in a total volume of 250 μL.
(§3) Each concentration was tested in triplicate and the dose response curve, showing percentage inhibition versus log concentration of steroid was plotted. The data fitted a log-linear straight line.

[2] = target: T1, 11β-HSD1 Dehydrogenase; experiment: Table 1: inhibition of 11β-HSD1 dehydrogenase; format: biochemical; conditions: Table 1, inhibition in words
[3] = target: T2, 11β-HSD2 Dehydrogenase (Ovis aries, UniProt P50168); experiment: Table 1: inhibition of 11β-HSD2 dehydrogenase; format: biochemical; conditions: Table 1, inhibition in words
T2 sequence (P50168 1-427): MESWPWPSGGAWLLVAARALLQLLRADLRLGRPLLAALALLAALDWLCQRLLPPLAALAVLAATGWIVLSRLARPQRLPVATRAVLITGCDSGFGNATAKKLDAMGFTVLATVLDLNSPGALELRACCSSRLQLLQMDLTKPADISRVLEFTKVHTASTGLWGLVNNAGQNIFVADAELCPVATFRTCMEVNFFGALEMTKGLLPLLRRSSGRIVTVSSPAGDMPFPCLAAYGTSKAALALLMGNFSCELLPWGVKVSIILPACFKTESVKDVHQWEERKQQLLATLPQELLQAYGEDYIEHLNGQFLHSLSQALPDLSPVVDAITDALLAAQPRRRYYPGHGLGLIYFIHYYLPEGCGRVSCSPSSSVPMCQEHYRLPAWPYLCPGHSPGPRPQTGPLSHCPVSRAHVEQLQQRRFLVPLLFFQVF

[4] = target: T3, 11β-HSD1 Reductase (Rattus norvegicus, UniProt P16232); experiment: 11β-HSD1 reductase assay in rat Leydig cell homogenates; conditions: for inhibitors of 11β-HSD1 reductase (summary in words): summary of the screening; for Leydig Cell 11β-HSD1 Reductase [S]= 600 nM: rat Leydig cell homogenates, 600 nM 11-dehydro-corticosterone;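 for all read-outs here: rat Leydig cell homogenate incubated 20 min at 37 °C, pH 7.4, with tritiated 11-dehydro-corticosterone and 3 mM NADPH, product measured by HPLC, inhibition from triplicate dose–response curves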
T3 sequence (P16232 whole entry): as the sequence (P16232 whole entry) above
Experimental: as §1, §2, §3

[5] = tested on: rat aortic rings; experiment: Contractile response of rat aortic rings to phenylephrine; format: cell-based; conditions: for amplification of the contractile response to phenylephrine by the steroid: rings incubated 24 h with steroid (corticosterone 10 nmol/L; 11-dehydro-corticosterone 100 nmol/L)
Experimental: Male Sprague-Dawley (150-200 g) rats were anesthetized with pentobarbital (50 mg/kg IP), and a median sternotomy was performed followed by the rapid removal of the thoracic aorta. The adventitia was removed, but the endothelium was left intact. The aorta was cut into 2-3 mm rings and individual rings were placed into a single well of a twenty four well culture plate and incubated at 37° C. under 95% 02-5% CO2. Each well contained 1 mL of DMEM/F12 containing 1% fetal bovine serum, streptomycin (100 μg/ml), penicillin (100 units/ml) and amphotericin (0.25 μg/ml). Aortic rings were incubated for 24 hours prior to contractility measurements with the following combinations of steroids, and antisense/nonsense oligonucleotides (3 μmol/L):
Antisense phosphorothioate oligonucleotides, targeted to block either 11β-HSD2 or 11β-HSD1 gene expression, were obtained from Research Genetics, Huntsville Ala. Antisense oligomers complementary to 20 bp sequences spanning the ribosome binding/translation start site were used. Oligomer sequences were: 5′-CATAACTGCCGTCCAACAGC-3′ (SEQ ID NO. 1) for 11β-HSD1 Antisense and 5′-AGGCCAGCGCTCCATGACTT-3′ (SEQ ID NO 2) for 11β-HSD2 antisense. In control experiments the corresponding sense sequence was used as the nonsense oligomer. Antisense and nonsense oligomers were added directly to each well at 20 μg/10:1 sterile H2O per well for a final concentration of 3 μmol/L.
For contraction measurements, aortic rings were suspended by tungsten wires with 1 g of tension and placed in a vessel bath containing serum free DMEM/F12 media at 37° C. aerated with 95% O2-5% CO2, at pH 7.4. Vessels were equilibrated for 20 minutes and then tested with phenylephrine (1 nmol/L-10 μmol/L). Although phenylephrine is structurally not a catecholamine, it is considered to be a functional catecholamine as it activates both a and P adrenoceptors. Due to its favorable stability characteristics, it is widely used as a catecholamine substitute in experiments of this nature. The intensity of contraction was assessed by use of a Narishige micromanipulator and model FT03 force transducer (Grass Instrument Co. West Warwick, R.I.). Measurements were recorded on computer using the Labview 4.1 Virtual Instrument System (National Instruments, Austin, Tex.).

[6] = target: T3, 11β-HSD1 Reductase; experiment: Table 1: inhibition of 11β-HSD1 reductase; format: biochemical; conditions: Table 1, inhibition in words
[7] = target: T4, 11β-HSD1-reductase activity (Rattus norvegicus, UniProt P16232); experiment: Metabolism of 3H-11-dehydrocorticosterone back to corticosterone by aortic rings; format: cell-based; conditions: 24 hours, compared with nonsense oligomers
T4 construct: from tissue; host or cells: rat aortic rings (intact tissue, 24 h incubation)
T4 sequence (P16232 whole entry): as the sequence (P16232 whole entry) above
Experimental: The effects of 11β-HSD1 and 11β-HSD2 antisense on the inter-conversion of ^3H-corticosterone and ^3H-11-dehydro-corticosterone by aortic rings was also determined. Rings (2-3 mm) obtained in a similar manner as those in the contraction studies, were incubated in 1 ml DMEM/F12 media containing 1% FBS at 37° C. under 95% O2-5% CO2 in 24-well culture plates. Rings were incubated for 24 hours with:
(ii) ^3H-11β-dehydro-corticosterone (10 nmol/L)±11β-HSD1 antisense (3 μmol/L); this experiment was performed in duplicate (n=10 aortic rings per well). Control groups were incubated with the appropriate nonsense oligomer. ^3H-corticosterone in the incubation medium after 24 hrs was then measured. In this experiment, aortic rings were also analyzed for ^3H-corticosterone content. Rings from duplicate incubations (total n=20) were blotted dry, pooled and homogenized in 50% methanol using a Polytron. The homogenates were then centrifuged, extracted as below using Sep-Paks and injected onto a HPLC system for analysis.
Incubation media was collected, ran through a Sep-Pak and eluted with 3 mls of methanol, the eluate was then dried under nitrogen and reconstituted in 500:1 methanol. The aortic rings were dried and weighed. […] Steroids were observed by monitoring radioactivity on-line with a Packard Radiomatic Flo-One/Beta Series A-500 counter connected to a Dell Optiflex 425 S/L computer. […]

[8] = target: T5, 11β-HSD2 (Ovis aries, UniProt P50168); experiment: 11β-HSD2 enzyme activity in sheep kidney microsomes; format: biochemical; conditions: for inhibitors of 11β-HSD2 (summary in words): summary of the screening
T5 construct: incubating sheep kidney microsomal fraction (6.5 μg protein) with 50 nM corticosterone; from tissue; host or cells: sheep kidney microsomal fraction
T5 sequence (P50168 1-427): T2 sequence (P50168 1-427)
Description: The enzymatic reaction was termninated by addition of methanol and synthesis of 11-dehydro-corticosterone was quantitated by HPLC as described above.

[9] = rat Leydig cell homogenates, 600 nM corticosterone
[10] = rat Leydig cell homogenates, 600 nM corticosterone, NADP, corticosteroid series, read-out: Leydig Cell 11β-HSD1 Dehydrogenase [S]= 600 nM
[11] = 11β-HSD2, sheep kidney microsomes, 50 nM corticosterone, NAD+, aldosterone, cortisol, corticosterone series, read-out: Dehydrogenase [S] = 50 nM

SMILES: CC(=O)[C@H]1CC[C@@H]2[C@@H]3CCC4=CC(=O)CC[C@]4(C)[C@@H]3C(=O)C[C@]12C (stereo in doubt) [11 -Keto-Progesterone, 4-Pregnen-3,11,20-trione]
- pIC50 [1]: < 4.00
- Leydig Cell 11β-HSDl Dehydrogenase [S] = 600 nM [1, 9]: inactive
- 11β-HSD1 Dehydrogenase [2]: No Inhibition
- 11β-HSD2 Dehydrogenase [3]: Potent Inhibitor
- pIC50 [4]: 5.02
- inhibitors of 11β-HSD1 reductase (summary in words) ([4]; listed as 11-Keto-Progesterone): potent inhibitors
- inhibitors of 11β-HSD1 reductase (summary in words) ([4]; listed as 11-keto-progesterone): high potency
- effect on the ability of 11-dehydro-corticosterone to amplify the contractile response to phenylephrine ([5]; 11-dehydro-corticosterone 100 nmol/L, 24 h, antisense 3 μmol/L vs nonsense): diminished
- 11β-HSD1 Reductase [6]: Selective Inhibitor
- production of 3H-corticosterone from 3H-11-dehydrocorticosterone [7]: decreased the metabolism
- pIC50 [8]: 6.40
- inhibitors of 11β-HSD2 (summary in words) ([8]; listed as 11-keto-progesterone): potent inhibitors; also recorded: high potency

SMILES: C[C@]12CC[C@@H](O)C[C@H]1CC[C@@H]1[C@H]2C(=O)C[C@]2(C)[C@@H](C(=O)CO)CC[C@@H]12 [3α,5α-TH-11-dehydrocorticosterone, 5α-Pregnan-3α,21-diol-11,20-dione]
- pIC50 [1, 10]: 5.10
- 11β-HSD1 Dehydrogenase [2]: No Inhibition
- 11β-HSD2 Dehydrogenase [3]: Potent Inhibitor
- pIC50 [4]: 6.15
- inhibitors of 11β-HSD1 reductase (summary in words) [4]: potent inhibitors; also recorded: high potency
- 11β-HSD1 Reductase [6]: Potent Inhibitor
- pIC50 [8, 11]: 6.10
- inhibitors of 11β-HSD2 (summary in words) [8]: potent inhibitors; also recorded: high potency

SMILES: C[C@]12CC[C@@H](O)C[C@H]1CC[C@@H]1[C@H]2[C@@H](O)C[C@]2(C=O)[C@@H](C(=O)CO)CC[C@@H]12 [3α,5α-TH-Aldosterone, 5α-Pregnan-3α,11β,21-triol-20-one-18-al]
- pIC50 [1, 10]: 4.60
- 11β-HSD1 Dehydrogenase [2]: Moderate Inhibitor
- 11β-HSD2 Dehydrogenase [3]: Potent Inhibitor
- pIC50 [4]: < 4.00
- Leydig Cell 11β-HSD1 Reductase [S]= 600 nM ([4]; NADPH, corticosteroid series): inactive
- 11β-HSD1 Reductase [6]: No Inhibition
- pIC50 [8, 11]: 6.30
- inhibitors of 11β-HSD2 (summary in words) ([8]; listed as 3α,5α-TH -aldosterone): potent inhibitors
- inhibitors of 11β-HSD2 (summary in words) ([8]; listed as 3α,5α-TH-aldosterone): high potency

SMILES: C[C@]12CC[C@@H](O)C[C@H]1CC[C@@H]1[C@H]2[C@@H](O)C[C@]2(C)[C@@H](C(=O)CO)CC[C@@H]12 [3α,5α-TH-Corticosterone, 5α-Pregnan-3α,11β,21-triol-20-one]
- pIC50 [1, 10]: 5.89
- inhibitors of 11β-HSD1 dehydrogenase (summary in words) [1]: potent inhibitors; also recorded: high potency
- 11β-HSD1 Dehydrogenase [2]: Potent Inhibitor
- 11β-HSD2 Dehydrogenase [3]: Potent Inhibitor
- Leydig Cell 11β-HSD1 Reductase [S]= 600 nM ([4]; NADPH, corticosteroid series): weak inhibitor
- 11β-HSD1 Reductase [6]: No Inhibition
- pIC50 [8, 11]: 6.59
- inhibitors of 11β-HSD2 (summary in words) [8]: potent inhibitors; also recorded: high potency

SMILES: C[C@]12CCC(=O)C[C@H]1CC[C@@H]1[C@H]2[C@@H](O)C[C@]2(C)[C@@H](C(=O)CO)CC[C@@H]12 [5α-DH-Corticosterone, 5α-Pregnan-11β,-21-diol-3,20-dione]
- pIC50 [1]: 5.68
- inhibitors of 11β-HSD1 dehydrogenase (summary in words) [1]: potent inhibitors; also recorded: high potency
- 11β-HSD1 Dehydrogenase [2]: Potent Inhibitor
- 11β-HSD2 Dehydrogenase [3]: Potent Inhibitor
- pIC50 [4]: 5.20
- 11β-HSD1 Reductase [6]: No inhibition
- pIC50 [8]: 6.82
- inhibitors of 11β-HSD2 (summary in words) [8]: potent inhibitors; also recorded: high potency

SMILES: C[C@]12CC(=O)[C@@H]3[C@@H](CCC4=CC(=O)CC[C@@]43C)[C@H]1CC[C@@H]2O [11 -Keto-Testosterone, 4-Androsten-17β-ol-11,3-dione]
- pIC50 [1]: < 4.00
- Leydig Cell 11β-HSDl Dehydrogenase [S] = 600 nM [1, 9]: inactive
- 11β-HSD1 Dehydrogenase [2]: No Inhibition
- 11β-HSD2 Dehydrogenase [3]: No Inhibition
- pIC50 [4]: 4.74
- 11β-HSD1 Reductase [6]: Selective Inhibitor
- pIC50 [8]: 5.87
- inhibitors of 11β-HSD2 (summary in words) [8]: potent inhibitors; also recorded: high potency

SMILES: C[C@]12CC(=O)[C@H]3[C@@H](CCC4=CC(=O)CC[C@@]43C)[C@@H]1CC[C@@H]2C(=O)CO [11-dehydro-corticosterone]
- pIC50 [1, 10]: < 4.00
- amplification of the contractile response to phenylephrine by the steroid [5]: amplified the contractile response
- pIC50 [8, 11]: 6.33
- inhibitors of 11β-HSD2 (summary in words) [8]: potent inhibitors; also recorded: high potency

SMILES: C[C@]12C[C@H](O)[C@@H]3[C@@H](CCC4=CC(=O)CC[C@@]43C)[C@H]1CC[C@@H]2O [11β-OH-Testosterone, 4-Androsten-11β,17β-diol-3-one]
- pIC50 [1]: 5.05
- inhibitors of 11β-HSD1 dehydrogenase (summary in words) [1]: potent inhibitors
- inhibitors of 11β-HSD1 dehydrogenase (summary in words) ([1]; listed as 11β-OH-testosterone): high potency
- inhibitors of 11β-HSD1 dehydrogenase (summary in words) ([1]; listed as 11β-hydroxy-testosterone): potently inhibit
- 11β-HSD1 Dehydrogenase [2]: Inhibitor (Non-Selective)
- 11β-HSD2 Dehydrogenase [3]: Inhibitor (Non-Selective)
- pIC50 [4]: < 4.00
- Leydig Cell 11β-HSD1 Reductase [S]= 600 nM ([4]; progesterone and androgen derivatives): inactive
- 11β-HSD1 Reductase [6]: No Inhibition
- pIC50 [8]: 6.46
- inhibitors of 11β-HSD2 (summary in words) ([8]; listed as 11β-OH-testosterone): potent inhibitors; also recorded: high potency

SMILES: C[C@]12C[C@H](O)[C@H]3[C@@H](CCC4=CC(=O)CC[C@@]43C)[C@@H]1CC[C@@H]2C(=O)CO [corticosterone, reference compound]
- amplification of the contractile response to phenylephrine by the steroid [5]: amplified contractile responses
